Measured values taken from ChEMBL document CHEMBL1143748, “'Bridged' stilbene derivatives as selective cyclooxygenase-1 inhibitors” (Bioorg Med Chem, 2007).

Experiments:
[1] = molecular target: T1, Prostaglandin G/H synthase 1 (Ovis aries, UniProt P05979); assay: Inhibition of ovine COX1 by measuring PGE2
T1 sequence (P05979 whole entry): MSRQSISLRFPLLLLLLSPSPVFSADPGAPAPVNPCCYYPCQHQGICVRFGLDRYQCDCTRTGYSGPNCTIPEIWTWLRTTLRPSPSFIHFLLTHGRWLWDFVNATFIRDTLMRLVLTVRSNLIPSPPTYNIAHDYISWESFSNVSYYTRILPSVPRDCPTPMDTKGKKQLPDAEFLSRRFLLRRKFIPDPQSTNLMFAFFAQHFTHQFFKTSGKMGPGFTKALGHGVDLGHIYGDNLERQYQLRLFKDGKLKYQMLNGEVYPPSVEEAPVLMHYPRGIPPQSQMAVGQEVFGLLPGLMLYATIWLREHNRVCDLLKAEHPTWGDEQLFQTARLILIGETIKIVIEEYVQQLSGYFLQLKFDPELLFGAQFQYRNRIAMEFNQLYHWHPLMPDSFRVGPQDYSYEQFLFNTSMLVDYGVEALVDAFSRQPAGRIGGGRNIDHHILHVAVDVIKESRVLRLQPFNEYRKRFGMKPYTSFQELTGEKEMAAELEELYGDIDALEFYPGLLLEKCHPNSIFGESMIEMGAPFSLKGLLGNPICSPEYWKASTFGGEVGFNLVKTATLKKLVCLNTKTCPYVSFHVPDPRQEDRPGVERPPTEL

[2] = molecular target: T2, Prostaglandin G/H synthase 2 (Homo sapiens, UniProt P35354); assay: Inhibition of human recombinant COX2 by measuring PGE2
T2 sequence (P35354 whole entry): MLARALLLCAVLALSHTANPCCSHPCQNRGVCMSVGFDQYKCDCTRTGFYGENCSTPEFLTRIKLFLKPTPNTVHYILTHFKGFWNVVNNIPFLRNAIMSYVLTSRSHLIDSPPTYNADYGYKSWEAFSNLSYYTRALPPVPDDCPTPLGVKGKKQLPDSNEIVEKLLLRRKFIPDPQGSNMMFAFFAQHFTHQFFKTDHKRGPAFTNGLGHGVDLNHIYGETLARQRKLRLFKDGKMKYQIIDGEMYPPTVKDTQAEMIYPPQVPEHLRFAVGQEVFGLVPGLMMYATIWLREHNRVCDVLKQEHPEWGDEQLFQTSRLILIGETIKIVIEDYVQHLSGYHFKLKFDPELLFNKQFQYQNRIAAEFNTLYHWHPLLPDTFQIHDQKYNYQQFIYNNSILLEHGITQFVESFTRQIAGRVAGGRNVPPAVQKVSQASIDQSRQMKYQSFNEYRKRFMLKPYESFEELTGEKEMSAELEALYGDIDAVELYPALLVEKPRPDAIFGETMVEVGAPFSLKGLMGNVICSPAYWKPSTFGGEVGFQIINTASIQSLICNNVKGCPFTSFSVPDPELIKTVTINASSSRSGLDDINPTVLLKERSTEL

Ileum = assay: Relaxing effect on guinea pig terminal ileum ring assessed as reduction of force of contraction at 100 uM; format: functional, Cavia porcellus; set-up: scale not given: the % may be the effect or the level left
Aorta = assay: Relaxing effect on guinea pig aorta ring assessed as reduction of force of contraction at 100 uM; format: functional, Cavia porcellus; set-up: scale not given: the % may be the effect or the level left
[3] = Relaxing effect on guinea pig arteria pulmonalis ring assessed as reduction of force of contraction at 100 uM; format: functional, Cavia porcellus; set-up: scale not given: the % may be the effect or the level left
[4] = Selectivity for ovine COX1 over human recombinant COX2

C1=C(c2ccc3c(c2)OCO3)CCc2ccccc21
IC50 [1]: > 100000 nM | IC50 [2]: > 100000 nM

COc1ccccc1C1=Cc2ccccc2C1
Activity (Ileum): -40.89% | Activity (Aorta): -35.72% | IC50 [1]: 460 nM | IC50 [2]: 62300 nM | Activity [3]: -26.08% | Ratio IC50 [4]: 135

C1=C(c2ccc3c(c2)OCO3)Cc2ccccc21
Activity (Ileum): -51.74% | Activity (Aorta): -28.08% | IC50 [1]: 12800 nM | IC50 [2]: > 100000 nM | Activity [3]: -19.82% | Ratio IC50 [4]: > 7.8

COc1ccc(C2=Cc3ccccc3C2)c(OC)c1OC
Activity (Ileum): -35.94% | Activity (Aorta): -3.45% | IC50 [1]: 30 nM | IC50 [2]: 1330 nM | Activity [3]: -11.92% | Ratio IC50 [4]: 44.3

COc1ccc2c(c1)CCC(c1ccc(OC)c(OC)c1)=C2
IC50 [1]: 380 nM | IC50 [2]: 30 nM | Ratio IC50 [4]: 0.079

COc1ccc(C2=Cc3ccccc3CC2)cc1OC
Activity (Ileum): -45.34% | Activity (Aorta): -15.97% | IC50 [1]: 61100 nM | IC50 [2]: > 100000 nM | Activity [3]: -41.45% | Ratio IC50 [4]: > 1.63

COc1ccc2c(c1)CCC(c1ccc(OC)c(OC)c1OC)=C2
IC50 [1]: 15 nM | IC50 [2]: > 100000 nM | Ratio IC50 [4]: > 6670

COc1ccc(C2=Cc3ccccc3CC2)c(OC)c1OC
IC50 [1]: 480 nM | IC50 [2]: 660 nM | Ratio IC50 [4]: 1.38

Oc1ccc(/C=C/c2cc(O)cc(O)c2)cc1 [RESVERATROL]
Activity (Ileum): -64.77% | Activity (Aorta): -55.15% | IC50 [1]: 535 nM | Activity [3]: -53.56%
